Reference: publication PMC6149898, “GPCR Modulation of Thieno[2,3-b]pyridine Anti-Proliferative Agents” (Molecules : A Journal of Synthetic Chemistry and Natural …, 2017)

Columns and labels:
[1] = target: EDG1 (Homo sapiens, UniProt P21453); experiment: gpcrMAX PathHunter beta-arrestin
[2] = target: DRD2S (Homo sapiens, UniProt P14416); experiment: gpcrMAX PathHunter beta-arrestin
[3] = target: CXCR1 (Homo sapiens, UniProt P25024); experiment: gpcrMAX PathHunter beta-arrestin
[4] = target: PTHR2 (Homo sapiens, UniProt P49190); experiment: gpcrMAX PathHunter beta-arrestin
[5] = test system: RE:ACHN; parameters: method as in earlier work; conditions: NCI-60 panel; ref [4],[5],[6],[7]; cited from earlier work
[6] = test system: BR:BT-549; parameters: method as in earlier work; conditions: NCI-60 panel; ref [4],[5],[6],[7]; cited from earlier work
[7] = target: NPBWR2 (Homo sapiens, UniProt P48146); experiment: gpcrMAX PathHunter beta-arrestin
[8] = test system: LE:SR; parameters: method as in earlier work; conditions: NCI-60 panel; ref [4],[5],[6],[7]; cited from earlier work
[9] = target: LTB4R (Homo sapiens, UniProt Q15722); experiment: gpcrMAX PathHunter beta-arrestin
[10] = target: VIPR1 (Homo sapiens, UniProt P32241); experiment: gpcrMAX PathHunter beta-arrestin
[11] = target: HTR5A (Homo sapiens, UniProt P47898); experiment: gpcrMAX PathHunter beta-arrestin
[12] = target: PTGFR (Homo sapiens, UniProt P43088); experiment: gpcrMAX PathHunter beta-arrestin
[13] = target: OXTR (Homo sapiens, UniProt P30559); experiment: gpcrMAX PathHunter beta-arrestin
[14] = target: KISS1R (Homo sapiens, UniProt Q969F8); experiment: gpcrMAX PathHunter beta-arrestin
[15] = test system: BR:MCF7; parameters: method as in earlier work; conditions: NCI-60 panel; ref [4],[5],[6],[7]; cited from earlier work
[16] = target: HTR1A (Homo sapiens, UniProt P08908); experiment: gpcrMAX PathHunter beta-arrestin
[17] = target: CCR7 (Homo sapiens, UniProt P32248); experiment: gpcrMAX PathHunter beta-arrestin
[18] = target: P2RY11 (Homo sapiens, UniProt Q96G91); experiment: gpcrMAX PathHunter beta-arrestin
[19] = target: DRD4 (Homo sapiens, UniProt P21917); experiment: gpcrMAX PathHunter beta-arrestin
[20] = test system: BR:MDA-MB-231; parameters: method as in earlier work; conditions: NCI-60 panel; ref [4],[5],[6],[7]; cited from earlier work
[21] = test system: RE:UO-31; parameters: method as in earlier work; conditions: NCI-60 panel; ref [4],[5],[6],[7]; cited from earlier work
[22] = target: PTGIR (Homo sapiens, UniProt P43119); experiment: gpcrMAX PathHunter beta-arrestin
[23] = target: P2RY4 (Homo sapiens, UniProt P51582); experiment: gpcrMAX PathHunter beta-arrestin
[24] = target: NPFFR1 (Homo sapiens, UniProt Q9GZQ6); experiment: gpcrMAX PathHunter beta-arrestin
[25] = target: NTSR1 (Homo sapiens, UniProt P30989); experiment: gpcrMAX PathHunter beta-arrestin
[26] = test system: LC:HOP-62; parameters: method as in earlier work; conditions: NCI-60 panel; ref [4],[5],[6],[7]; cited from earlier work
[27] = test system: LC:A549/ATCC; parameters: method as in earlier work; conditions: NCI-60 panel; ref [4],[5],[6],[7]; cited from earlier work
[28] = target: BRS3 (Homo sapiens, UniProt P32247); experiment: gpcrMAX PathHunter beta-arrestin
[29] = test system: CNS:SF-295; parameters: method as in earlier work; conditions: NCI-60 panel; ref [4],[5],[6],[7]; cited from earlier work
[30] = target: HCRTR2 (Homo sapiens, UniProt O43614); experiment: gpcrMAX PathHunter beta-arrestin
[31] = target: BDKRB1 (Homo sapiens, UniProt P46663); experiment: gpcrMAX PathHunter beta-arrestin
[32] = target: EBI2 (Homo sapiens, UniProt P32249); experiment: gpcrMAX PathHunter beta-arrestin
[33] = target: EDG4 (Homo sapiens, UniProt Q9HBW0); experiment: gpcrMAX PathHunter beta-arrestin
[34] = test system: OV:OVCAR-8; parameters: method as in earlier work; conditions: NCI-60 panel; ref [4],[5],[6],[7]; cited from earlier work
[35] = target: AVPR1B (Homo sapiens, UniProt P47901); experiment: gpcrMAX PathHunter beta-arrestin
[36] = target: ADRB2 (Homo sapiens, UniProt P07550); experiment: gpcrMAX PathHunter beta-arrestin
[37] = target: PTHR1 (Homo sapiens, UniProt Q03431); experiment: gpcrMAX PathHunter beta-arrestin
[38] = target: P2RY1 (Homo sapiens, UniProt P47900); experiment: gpcrMAX PathHunter beta-arrestin
[39] = test system: CO:HCT-15; parameters: method as in earlier work; conditions: NCI-60 panel; ref [4],[5],[6],[7]; cited from earlier work
[40] = target: FPRL1 (Homo sapiens, UniProt P25090); experiment: gpcrMAX PathHunter beta-arrestin
[41] = target: CXCR5 (Homo sapiens, UniProt P32302); experiment: gpcrMAX PathHunter beta-arrestin
Chain of CXCR5 (P32302 whole entry): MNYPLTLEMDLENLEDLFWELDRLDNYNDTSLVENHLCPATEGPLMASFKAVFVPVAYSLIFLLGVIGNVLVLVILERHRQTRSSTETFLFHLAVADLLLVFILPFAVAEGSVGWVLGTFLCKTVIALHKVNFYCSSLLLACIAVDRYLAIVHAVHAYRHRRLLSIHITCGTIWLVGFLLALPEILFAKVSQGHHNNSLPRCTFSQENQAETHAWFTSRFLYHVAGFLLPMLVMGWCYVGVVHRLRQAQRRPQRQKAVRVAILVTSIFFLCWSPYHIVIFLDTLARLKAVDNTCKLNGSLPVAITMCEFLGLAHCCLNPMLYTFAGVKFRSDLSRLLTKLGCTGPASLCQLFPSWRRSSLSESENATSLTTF

Chain of P2RY4 (P51582 whole entry): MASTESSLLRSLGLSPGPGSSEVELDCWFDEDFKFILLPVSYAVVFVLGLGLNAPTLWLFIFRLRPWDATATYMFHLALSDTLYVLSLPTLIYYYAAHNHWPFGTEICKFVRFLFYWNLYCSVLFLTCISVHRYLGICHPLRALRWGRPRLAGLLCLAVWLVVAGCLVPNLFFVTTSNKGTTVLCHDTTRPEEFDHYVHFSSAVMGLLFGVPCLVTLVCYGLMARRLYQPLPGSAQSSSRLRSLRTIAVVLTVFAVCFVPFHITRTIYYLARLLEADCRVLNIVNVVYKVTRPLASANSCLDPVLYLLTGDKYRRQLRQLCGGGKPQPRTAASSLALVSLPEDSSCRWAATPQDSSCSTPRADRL
Chain of NPFFR1 (Q9GZQ6 whole entry): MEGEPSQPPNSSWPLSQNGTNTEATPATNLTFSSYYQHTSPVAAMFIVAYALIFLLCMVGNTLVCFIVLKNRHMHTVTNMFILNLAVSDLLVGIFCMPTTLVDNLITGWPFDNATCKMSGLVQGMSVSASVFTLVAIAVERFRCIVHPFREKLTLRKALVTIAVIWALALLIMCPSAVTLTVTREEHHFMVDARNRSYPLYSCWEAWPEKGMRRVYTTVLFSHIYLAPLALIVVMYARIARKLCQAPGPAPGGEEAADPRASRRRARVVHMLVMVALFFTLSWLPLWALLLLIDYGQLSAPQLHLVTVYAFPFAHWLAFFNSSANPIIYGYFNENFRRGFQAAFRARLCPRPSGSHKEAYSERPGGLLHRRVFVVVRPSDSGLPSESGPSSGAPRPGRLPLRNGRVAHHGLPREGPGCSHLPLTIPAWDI
Chain of PTHR1 (Q03431 27-593): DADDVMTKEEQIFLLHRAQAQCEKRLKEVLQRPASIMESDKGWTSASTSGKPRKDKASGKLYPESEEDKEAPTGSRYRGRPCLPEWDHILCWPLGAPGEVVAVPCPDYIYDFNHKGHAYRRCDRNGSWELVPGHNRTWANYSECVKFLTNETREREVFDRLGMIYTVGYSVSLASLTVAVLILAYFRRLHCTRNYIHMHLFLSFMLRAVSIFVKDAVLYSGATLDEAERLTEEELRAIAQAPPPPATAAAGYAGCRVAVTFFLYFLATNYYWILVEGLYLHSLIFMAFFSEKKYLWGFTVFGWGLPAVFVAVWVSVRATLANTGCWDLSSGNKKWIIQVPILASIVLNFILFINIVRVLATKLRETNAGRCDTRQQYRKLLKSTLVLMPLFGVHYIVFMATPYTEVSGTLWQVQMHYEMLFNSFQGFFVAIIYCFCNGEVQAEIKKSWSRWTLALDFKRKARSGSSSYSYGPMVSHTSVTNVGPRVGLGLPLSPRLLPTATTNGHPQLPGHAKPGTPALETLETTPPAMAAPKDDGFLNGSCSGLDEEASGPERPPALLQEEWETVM
Chain of NPBWR2 (P48146 whole entry): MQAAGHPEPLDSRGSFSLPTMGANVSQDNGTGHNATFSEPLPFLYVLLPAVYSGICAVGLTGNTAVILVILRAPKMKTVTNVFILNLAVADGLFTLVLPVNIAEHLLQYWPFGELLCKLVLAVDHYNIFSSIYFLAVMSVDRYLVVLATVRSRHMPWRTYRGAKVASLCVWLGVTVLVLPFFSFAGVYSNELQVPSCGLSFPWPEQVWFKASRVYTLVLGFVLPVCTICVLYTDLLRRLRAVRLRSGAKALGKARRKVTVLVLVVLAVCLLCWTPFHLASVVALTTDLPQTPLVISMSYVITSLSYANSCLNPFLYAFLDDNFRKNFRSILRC
Chain of DRD4 (P21917 whole entry): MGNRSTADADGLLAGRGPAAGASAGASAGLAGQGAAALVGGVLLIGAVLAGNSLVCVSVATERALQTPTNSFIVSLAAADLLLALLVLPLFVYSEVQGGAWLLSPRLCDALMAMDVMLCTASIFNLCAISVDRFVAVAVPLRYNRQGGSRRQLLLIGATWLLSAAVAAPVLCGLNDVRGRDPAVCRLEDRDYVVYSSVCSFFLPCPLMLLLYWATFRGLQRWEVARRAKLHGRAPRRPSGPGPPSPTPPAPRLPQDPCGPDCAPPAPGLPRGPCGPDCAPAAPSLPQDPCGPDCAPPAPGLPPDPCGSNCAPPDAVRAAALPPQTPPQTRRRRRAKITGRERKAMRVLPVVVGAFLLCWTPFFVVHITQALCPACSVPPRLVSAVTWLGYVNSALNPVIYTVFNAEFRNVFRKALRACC
Chain of EBI2 (P32249 whole entry): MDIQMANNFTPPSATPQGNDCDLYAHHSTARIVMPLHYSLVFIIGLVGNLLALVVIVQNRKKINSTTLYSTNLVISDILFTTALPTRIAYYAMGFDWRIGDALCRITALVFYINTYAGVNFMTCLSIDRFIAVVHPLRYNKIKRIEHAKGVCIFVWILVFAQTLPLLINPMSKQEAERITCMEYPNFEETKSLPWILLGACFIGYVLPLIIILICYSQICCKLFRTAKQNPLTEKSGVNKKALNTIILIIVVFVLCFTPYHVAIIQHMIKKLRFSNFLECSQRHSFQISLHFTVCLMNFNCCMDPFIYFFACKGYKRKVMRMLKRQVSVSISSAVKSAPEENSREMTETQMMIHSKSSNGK
Chain of PTHR2 (P49190 25-550): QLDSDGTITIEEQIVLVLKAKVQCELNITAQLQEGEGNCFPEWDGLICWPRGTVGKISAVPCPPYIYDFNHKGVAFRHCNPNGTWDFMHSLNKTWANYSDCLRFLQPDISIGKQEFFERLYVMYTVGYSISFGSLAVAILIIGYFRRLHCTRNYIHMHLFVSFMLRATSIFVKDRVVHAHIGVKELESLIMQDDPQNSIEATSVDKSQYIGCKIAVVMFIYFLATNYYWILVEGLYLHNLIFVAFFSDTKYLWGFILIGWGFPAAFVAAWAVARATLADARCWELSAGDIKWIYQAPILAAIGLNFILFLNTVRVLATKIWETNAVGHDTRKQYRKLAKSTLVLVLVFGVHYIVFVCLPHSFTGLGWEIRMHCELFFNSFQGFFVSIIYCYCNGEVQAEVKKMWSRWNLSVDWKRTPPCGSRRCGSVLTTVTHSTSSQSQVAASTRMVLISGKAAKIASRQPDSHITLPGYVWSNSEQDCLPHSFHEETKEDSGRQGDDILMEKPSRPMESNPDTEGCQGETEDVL
Chain of DRD2S (P14416 1-414 isoform P14416-2): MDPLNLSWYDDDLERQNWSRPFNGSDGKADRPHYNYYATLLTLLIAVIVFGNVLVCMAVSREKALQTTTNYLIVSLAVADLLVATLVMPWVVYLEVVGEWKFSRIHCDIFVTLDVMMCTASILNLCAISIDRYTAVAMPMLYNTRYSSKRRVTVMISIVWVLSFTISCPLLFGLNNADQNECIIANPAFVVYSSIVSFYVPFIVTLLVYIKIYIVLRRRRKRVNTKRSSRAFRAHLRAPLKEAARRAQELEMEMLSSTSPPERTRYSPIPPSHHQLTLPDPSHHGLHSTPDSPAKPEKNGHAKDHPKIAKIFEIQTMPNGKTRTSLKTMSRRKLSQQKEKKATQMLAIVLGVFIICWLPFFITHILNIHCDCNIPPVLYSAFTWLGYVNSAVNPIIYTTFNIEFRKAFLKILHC
Chain of LTB4R (Q15722 whole entry): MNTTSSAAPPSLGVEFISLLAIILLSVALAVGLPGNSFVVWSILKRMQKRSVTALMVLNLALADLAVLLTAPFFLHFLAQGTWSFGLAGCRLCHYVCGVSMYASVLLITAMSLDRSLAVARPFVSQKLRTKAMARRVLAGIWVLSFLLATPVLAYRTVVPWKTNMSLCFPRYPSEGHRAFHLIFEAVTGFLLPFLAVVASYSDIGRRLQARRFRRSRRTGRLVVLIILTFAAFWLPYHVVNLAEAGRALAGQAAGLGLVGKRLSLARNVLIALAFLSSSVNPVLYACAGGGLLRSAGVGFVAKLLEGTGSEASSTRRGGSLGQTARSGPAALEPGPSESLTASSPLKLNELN
Chain of CCR7 (P32248 25-378): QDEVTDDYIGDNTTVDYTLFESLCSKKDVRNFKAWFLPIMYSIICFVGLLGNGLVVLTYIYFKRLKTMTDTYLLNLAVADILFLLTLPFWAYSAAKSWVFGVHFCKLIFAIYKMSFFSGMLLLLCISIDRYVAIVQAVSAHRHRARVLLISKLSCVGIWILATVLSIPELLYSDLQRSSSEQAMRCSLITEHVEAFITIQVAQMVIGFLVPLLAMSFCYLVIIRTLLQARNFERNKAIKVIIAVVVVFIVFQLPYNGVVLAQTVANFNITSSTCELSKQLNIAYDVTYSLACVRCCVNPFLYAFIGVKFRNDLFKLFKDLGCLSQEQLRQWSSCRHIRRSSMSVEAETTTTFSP
Chain of CXCR1 (P25024 whole entry): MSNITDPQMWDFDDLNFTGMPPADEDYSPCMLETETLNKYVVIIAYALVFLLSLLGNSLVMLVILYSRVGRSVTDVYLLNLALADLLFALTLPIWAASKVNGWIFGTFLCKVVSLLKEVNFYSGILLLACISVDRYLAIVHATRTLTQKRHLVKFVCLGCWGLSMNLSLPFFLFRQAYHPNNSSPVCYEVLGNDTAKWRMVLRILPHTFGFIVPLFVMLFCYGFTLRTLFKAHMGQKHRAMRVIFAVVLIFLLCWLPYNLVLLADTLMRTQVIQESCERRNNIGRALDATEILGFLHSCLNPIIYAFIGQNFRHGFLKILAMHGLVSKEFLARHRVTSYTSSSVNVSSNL

## Cc1c(Cl)cccc1NC(=O)c1sc2nc3c(cc2c1N)C(=O)CCC3 [Compound 1]
[1]
  inhibition at 10 µM: -6%
[2]
  inhibition at 10 µM: -6%
[3]
  inhibition at 10 µM: 2%
[4]
  inhibition at 10 µM: 7%
[5]
  GI50: 83.7 nM
[6]
  GI50: 321 nM
[7]
  inhibition at 10 µM: -5%
[8]
  GI50: 74.2 nM
[9]
  inhibition at 10 µM: 4%
[10]
  inhibition at 10 µM: 7%
[11]
  inhibition at 10 µM: 2%
[12]
  inhibition at 10 µM: -13%
[13]
  inhibition at 10 µM: 7%
[14]
  inhibition at 10 µM: 5%
[15]
  GI50: 46.4 nM
[16]
  inhibition at 10 µM: 3%
[17]
  inhibition at 10 µM: 34%
[18]
  inhibition at 10 µM: -6%
[19]
  inhibition at 10 µM: -7%
[20]
  GI50: 141 nM
[21]
  GI50: 73.1 nM
[22]
  inhibition at 10 µM: 8%
[23]
  inhibition at 10 µM: -16%
[24]
  inhibition at 10 µM: -55%
[25]
  inhibition at 10 µM: 12%
[26]
  GI50: 110 nM
[27]
  GI50: 63.1 nM
[28]
  inhibition at 10 µM: 17%
[29]
  GI50: 36.5 nM
[30]
  inhibition at 10 µM: 8%
[31]
  inhibition at 10 µM: -9%
[32]
  inhibition at 10 µM: 4%
[33]
  inhibition at 10 µM: 7%
[34]
  GI50: 279 nM
[35]
  inhibition at 10 µM: 3%
[36]
  inhibition at 10 µM: -46%
[37]
  inhibition at 10 µM: 12%
[38]
  inhibition at 10 µM: 24%
[39]
  GI50: 70.5 nM
[40]
  inhibition at 10 µM: 11%
[41]
  inhibition at 10 µM: 0%
